Columns and labels:
[1] = system: LU-165 (Small Cell Lung Carcinoma); assay: Bliss excess, mean over the matrix (fraction); higher = more synergy
Outline: (§1)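 After 24 hours at 37°C and 5% CO2 in 1536-well plates, cells in DMEM/F12 or RPMI plus 10% FBS received two-drug dose matrices for 72 hours. Viability came from CellTiter-Glo 2.0 luminescence and was scaled as inhibition, anchored at 0 by vehicle wells and at 1 by blank wells. Combination Emax is taken as the second-highest inhibition in the matrix, and Bliss excess as the observed combination effect less EA + EB − EA·EB, with EA and EB the single-agent effects.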

[2] = system: MHH-ES-1 (Ewing's Sarcoma); assay: as above
Outline: as §1

[3] = system: MDA-MB-436 (Breast Carcinoma); assay: as above
Outline: as §1

[4] = system: HCC1395 (Breast Carcinoma); assay: as above
Outline: as §1

[5] = system: JHU-022 (Oral Cavity Carcinoma); assay: as above
Outline: as §1

WM1552C (Melanoma) = assay: as above
Outline: as §1

HCC70 (Breast Carcinoma) [6] = assay: as above
Outline: as §1

EB2 (Burkitt's Lymphoma) = assay: as above
Outline: as §1

[7] = system: 22RV1 (Prostate Carcinoma); assay: as above
Outline: as §1

[8] = system: NCI-H1651 (Lung Adenocarcinoma); assay: as above
Outline: as §1

[9] = system: UACC-812 (Breast Carcinoma); assay: as above
Outline: as §1

[10] = system: KYSE-220 (Esophageal Squamous Cell Carcinoma); assay: as above
Outline: as §1

[11] = system: SK-HEP-1 (Hepatocellular Carcinoma); assay: as above
Outline: as §1

PEO1 (Ovarian Carcinoma) = assay: as above
Outline: as §1

[12] = system: SW620 (Colorectal Carcinoma); assay: as above
Outline: as §1

[13] = system: NCI-H441 (Lung Adenocarcinoma); assay: as above
Outline: as §1

[14] = system: JHH-2 (Hepatocellular Carcinoma); assay: as above
Outline: as §1

[15] = system: JHU-022 (Oral Cavity Carcinoma); assay: combination Emax (second highest fraction inhibited in the dose matrix, 72 h); higher = more inhibition; extreme values may be limits of the assay
Outline: as §1

HCC70 (Breast Carcinoma) [16] = assay: as above
Outline: as §1

[17] = system: 22RV1 (Prostate Carcinoma); assay: as above
Outline: as §1
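Throughout, for Bliss excess, mean over the matrix: after 72 h of two-drug dosing.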

Row | SMILES | Bliss excess [1] | Bliss excess [2] | Bliss excess [3] | Bliss excess [4] | Bliss excess [5] | Bliss excess (WM1552C (Melanoma)) | Bliss excess (HCC70 (Breast Carcinoma) [6]) | Bliss excess (EB2 (Burkitt's Lymphoma)) | Bliss excess [7] | Bliss excess [8] | Bliss excess [9] | Bliss excess [10] | Bliss excess [11] | Bliss excess (PEO1 (Ovarian Carcinoma)) | Bliss excess [12] | Bliss excess [13] | Bliss excess [14] | combination Emax [15] | combination Emax (HCC70 (Breast Carcinoma) [16]) | combination Emax [17]
1 | CN(CCO)CC[C@H](CSc1ccccc1)Nc1ccc(S(=O)(=O)NC(=O)c2ccc(N3CCC([C@@H](O)c4ccccc4-c4ccc(Cl)cc4)CC3)cc2)cc1S(=O)(=O)C(F)(F)F [AZD4320] + Cn1cnc2c(F)c(Nc3ccc(Br)cc3Cl)c(C(=O)NOCCO)cc21 [Selumetinib] (first compound max 1 µM, 7x7, partner max 3 µM) | -0.0155 | -0.0124 | -0.0388 | 0.012 | 0.0374 | 0.0035 | 0.152 | -0.0592 | 0.136 | 0.0238 | 0.0065 | 0.043 | 0.0008 | -0.0044 | 0.032 | 0.0193 | -0.0267 | 0.629 | 0.7 | 0.453
2 | Cc1cc2ncnn2cc1Nc1ncc2c(n1)n(C1CCOCC1)c(=O)n2C [AZD7648] + C[C@@H]1COCCN1C2=NC(=NC(=C2)C3(CC3)[S@](=N)(=O)C)C4=C5C=CNC5=NC=C4 [AZD6738] (first compound max 10 µM, 7x7, partner max 10 µM) | 0.0351 | 0.0275 | 0.0316 | 0.0361 | 0.0105 | 0.0143 | -0.0058 | -0.0604 | -0.0179 | 0.0217 | 0.0254 | -0.0122 | 0.0239 | -0.0121 | 0.0264 | 0.0095 | -0.073 | 0.578 | 0.764 | 0.518
3 | C[C@@H](c1ccc2nccn2c1)n1nnc2ncc(-c3cnn(C)c3)nc21 [Savolitinib] + CN(CC[C@H](CSC1=CC=CC=C1)NC2=C(C=C(C=C2)S(=O)(=O)NC(=O)C3=CC=C(C=C3)N4CCC(CC4)[C@H](C5=CC=CC=C5C6=CC=C(C=C6)Cl)O)S(=O)(=O)C(F)(F)F)CCO [AZD4320] (first compound max 1 µM, 7x7, partner max 1 µM) | – | -0.0154 | – | – | – | – | – | – | – | – | – | – | – | – | -0.0642 | – | – | – | – | –
4 | CN(CCO)CC[C@H](CSc1ccccc1)Nc1ccc(S(=O)(=O)NC(=O)c2ccc(N3CCC([C@@H](O)c4ccccc4-c4ccc(Cl)cc4)CC3)cc2)cc1S(=O)(=O)C(F)(F)F [AZD4320] + C[C@@H]1COCCN1C2=NC(=NC(=C2)C3(CC3)[S@](=N)(=O)C)C4=C5C=CNC5=NC=C4 [AZD6738] (first compound max 1 µM, 7x7, partner max 10 µM) | -0.0344 | 0.0133 | -0.0121 | 0.0007 | -0.0035 | -0.0969 | -0.0318 | 0.0248 | -0.133 | 0.0261 | -0.0348 | -0.0076 | -0.0723 | 0.0134 | -0.0151 | -0.048 | -0.0186 | 0.753 | 0.845 | 0.624
5 | CN(CCO)CC[C@H](CSc1ccccc1)Nc1ccc(S(=O)(=O)NC(=O)c2ccc(N3CCC([C@@H](O)c4ccccc4-c4ccc(Cl)cc4)CC3)cc2)cc1S(=O)(=O)C(F)(F)F [AZD4320] + C[C@@H](Nc1cc(F)cc(F)c1)c1cc(C(=O)N(C)C)cc2c(=O)cc(N3CCOCC3)oc12 [AZD8186] (first compound max 1 µM, 7x7, partner max 3 µM) | -0.0236 | 0.01 | 0.0429 | 0.0463 | -0.0104 | 0.0104 | 0.0803 | -0.0196 | -0.0076 | -0.0074 | 0.0063 | -0.0227 | 0.0099 | -0.0468 | -0.0141 | -0.0528 | -0.0485 | 0.446 | 0.781 | 0.456
6 | CN(CCO)CC[C@H](CSc1ccccc1)Nc1ccc(S(=O)(=O)NC(=O)c2ccc(N3CCC([C@@H](O)c4ccccc4-c4ccc(Cl)cc4)CC3)cc2)cc1S(=O)(=O)C(F)(F)F [AZD4320] + C=CCn1c(=O)c2cnc(Nc3ccc(N4CCN(C)CC4)cc3)nc2n1-c1cccc(C(C)(C)O)n1 [AZD1775] (first compound max 1 µM, partner max 1 µM) | 0.0775 | 0.0439 | -0.0404 | -0.0345 | 0.032 | 0.0085 | 0.006 | 0.0346 | -0.0487 | 0.0154 | -0.0281 | -0.047 | -0.0191 | 0.0352 | 0.021 | 0.0365 | -0.0067 | 0.579 | 0.607 | 0.321
7 | COc1cc2ncnc(Nc3ccc(F)c(Cl)c3)c2cc1OCCCN1CCOCC1 [Gefitinib] + CC(C)n1c(=O)n(C)c2cnc3cc(F)c(-c4ccc(OCCCN5CCCCC5)nc4)cc3c21 [AZD1390] (first compound max 10 µM, 7x7, partner max 0.3 µM) | -0.0477 | -0.0611 | -0.0402 | -0.0265 | -0.053 | -0.0589 | -0.0536 | -0.0774 | -0.079 | -0.0554 | -0.0549 | -0.0059 | 0.0092 | -0.0346 | -0.0762 | -0.047 | -0.0446 | 0.626 | 0.162 | 0.148
8 | Cc1cc2ncnn2cc1Nc1ncc2c(n1)n(C1CCOCC1)c(=O)n2C [AZD7648] + C=CCn1c(=O)c2cnc(Nc3ccc(N4CCN(C)CC4)cc3)nc2n1-c1cccc(C(C)(C)O)n1 [AZD1775] (first compound max 10 µM, partner max 1 µM) | 0.0491 | -0.0116 | -0.0189 | -0.0571 | -0.0239 | -0.0111 | 0.0731 | -0.0857 | -0.0214 | -0.0812 | -0.0446 | -0.0222 | 0.0387 | 0.0164 | -0.0206 | 0.0059 | -0.0469 | 0.497 | 0.559 | 0.46
9 | CN(CCO)CC[C@H](CSc1ccccc1)Nc1ccc(S(=O)(=O)NC(=O)c2ccc(N3CCC([C@@H](O)c4ccccc4-c4ccc(Cl)cc4)CC3)cc2)cc1S(=O)(=O)C(F)(F)F [AZD4320] + Nc1ccn([C@@H]2O[C@H](CO)[C@@H](O)C2(F)F)c(=O)n1 [Gemcitabine] (first compound max 1 µM, 7x7, partner max 0.3 µM) | 0.0836 | 0.0486 | 0.0024 | -0.0457 | 0.0202 | 0.0167 | 0.103 | -0.0017 | -0.0286 | 0.0198 | -0.0326 | 0.0369 | -0.108 | -0.0368 | -0.009 | 0.0333 | -0.0302 | 0.787 | 0.507 | 0.748
10 | CN(CCO)CC[C@H](CSc1ccccc1)Nc1ccc(S(=O)(=O)NC(=O)c2ccc(N3CCC([C@@H](O)c4ccccc4-c4ccc(Cl)cc4)CC3)cc2)cc1S(=O)(=O)C(F)(F)F [AZD4320] + CC(=O)O[C@H]1C(=O)[C@@]2(C)[C@H]([C@H](OC(=O)c3ccccc3)[C@]3(O)C[C@H](OC(=O)[C@H](O)[C@@H](NC(=O)c4ccccc4)c4ccccc4)C(C)=C1C3(C)C)[C@]1(OC(C)=O)CO[C@@H]1C[C@@H]2O [Paclitaxel] (first compound max 1 µM, 7x7, partner max 3 µM) | 0.137 | 0.0393 | 0.0892 | 0.174 | 0.155 | -0.0076 | 0.0533 | -0.0306 | -0.0017 | -0.0099 | 0.0887 | 0.0169 | 0.0236 | -0.0057 | 0.11 | 0.0861 | -0.0037 | 0.846 | 0.875 | 0.845
11 | Cc1nc(Nc2ncc(C(=O)Nc3c(C)cccc3Cl)s2)cc(N2CCN(CCO)CC2)n1 [Dasatinib] + CC(=O)Nc1cccc(-n2c(=O)n(C3CC3)c(=O)c3c(Nc4ccc(I)cc4F)n(C)c(=O)c(C)c32)c1 [Trametinib] (first compound max 2 µM, 7x7, partner max 1 µM) | -0.04 | -0.0487 | -0.044 | -0.0332 | -0.0483 | 0.0003 | -0.0217 | 0.0027 | -0.0578 | -0.042 | – | -0.0522 | -0.0294 | -0.0433 | -0.0107 | 0.024 | -0.076 | 0.681 | 0.288 | 0.361
12 | N#Cc1cnc(Nc2cc(NC[C@H]3CNCCO3)c(C(F)(F)F)cn2)cn1 [SRA737] + Nc1ccn([C@@H]2O[C@H](CO)[C@@H](O)C2(F)F)c(=O)n1 [Gemcitabine] (first compound max 10 µM, 7x7, partner max 0.3 µM) | -0.0375 | 0.0613 | -0.0067 | 0.0226 | 0.008 | -0.0206 | – | -0.025 | -0.0663 | 0.0124 | -0.054 | -0.0155 | -0.0002 | 0.113 | 0.058 | -0.0336 | -0.0087 | 0.685 | 0.823 | 0.734
13 | COc1nnc2ccc(N3CCC(c4ccc(OCCN5CCN(C)C(=O)[C@H]5C)cc4)CC3)nn12 [AZD5153] + CN(CC[C@H](CSC1=CC=CC=C1)NC2=C(C=C(C=C2)S(=O)(=O)NC(=O)C3=CC=C(C=C3)N4CCC(CC4)[C@H](C5=CC=CC=C5C6=CC=C(C=C6)Cl)O)S(=O)(=O)C(F)(F)F)CCO [AZD4320] (first compound max 1 µM, 7x7, partner max 1 µM) | – | 0.0258 | – | – | – | – | – | – | – | – | – | – | – | – | 0.036 | – | – | – | – | –
14 | CC(=O)c1c(C)c2cnc(Nc3ccc(N4CCNCC4)cn3)nc2n(C2CCCC2)c1=O [Palbociclib] + CN(CC[C@H](CSC1=CC=CC=C1)NC2=C(C=C(C=C2)S(=O)(=O)NC(=O)C3=CC=C(C=C3)N4CCC(CC4)[C@H](C5=CC=CC=C5C6=CC=C(C=C6)Cl)O)S(=O)(=O)C(F)(F)F)CCO [AZD4320] (first compound max 10 µM, 7x7, partner max 1 µM) | – | 0.0028 | – | – | – | – | – | – | – | – | – | – | – | – | -0.0622 | – | – | – | – | –
